Results: patent US20060069132A1, “Azolecarboxamide herbicides” (priority 2004, published 2006)
Where two headings read alike, the source gives them in different places.

Tests used:
bermudagrass = assay: Test C pre-/postemergence herbicide test; type: in vivo, Cynodon dactylon
How it was run: (§1)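 Greenhouse-grown plants were evaluated visually 12 to 14 days after treatment, with 100 meaning complete control and 0 no effect. Application was preemergence, or postemergence at 2 to 18 cm.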

goosegrass = assay: Test C pre-/postemergence herbicide test; type: in vivo, Eleusine indica
How it was run: as §1

velvetleaf = assay: Test C pre-/postemergence herbicide test; type: in vivo, Abutilon theophrasti
How it was run: as §1

ducksalad = assay: Test C flooded paddy test; type: in vivo, Heteranthera limosa; conditions: Heteranthera limosa
barnyardgrass = assay: Test C flooded paddy test; type: in vivo, Echinochloa crus-galli; conditions: Echinochloa crus-galli
How it was run: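 Greenhouse test with a 12–14 day hold after application and visual comparison with controls. Emerged plants were 1- to 4-leaf stage (2–18 cm) when sprayed postemergence, and the paddy barnyardgrass was at 2 leaves under flooded conditions. 100 = complete control.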

johnsongrass = assay: Test C pre-/postemergence herbicide test; type: in vivo, Sorghum halepense
How it was run: as §1

Surinam grass = assay: Test C pre-/postemergence herbicide test; type: in vivo, Urochloa decumbens
How it was run: as §1

morningglory [1] = assay: Test C pre-/postemergence herbicide test; type: in vivo, Ipomoea coccinea
How it was run: as §1

giant foxtail = assay: Test A pre-/postemergence herbicide test; type: in vivo, Setaria faberi; conditions: Setaria faberi, 240 h; for pest or weed control at 500 g/ha: 500 g ai/ha; for pest or weed control at 2000 g/ha: 2000 g ai/ha
How it was run: (§2)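 Plants are held in greenhouse about ten days after treatment, then compared with untreated controls and scored 0 (no effect) to 100 (complete control). Preemergence dosing is a directed soil spray on sown sandy loam; postemergence dosing is spray to runoff at 2–10 cm height.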

corn = assay: Test C pre-/postemergence herbicide test; type: in vivo, Zea mays
How it was run: as §1

morningglory [2] = assay: Test A pre-/postemergence herbicide test; type: in vivo, Ipomoea spp.; conditions: Ipomoea, 240 h; for pest or weed control at 500 g/ha: 500 g ai/ha; for pest or weed control at 2000 g/ha: 2000 g ai/ha
How it was run: as §2

large crabgrass = assay: Test A pre-/postemergence herbicide test; type: in vivo, Digitaria sanguinalis; conditions: Digitaria sanguinalis, 240 h; for pest or weed control at 500 g/ha: 500 g ai/ha; for pest or weed control at 2000 g/ha: 2000 g ai/ha
How it was run: as §2

common ragweed = assay: Test C pre-/postemergence herbicide test; type: in vivo, Ambrosia elatior
How it was run: as §1

[3] = Preemergence, 500 g ai/ha, scale 0 to 100, 0 no effect, 100 complete control
[4] = post-emergence, Postemergence, 0 to 100 scale, 0 no effect, 100 complete control, read-out: Plant response rating, Foxtail, Giant
[5] = post-emergence, Postemergence, 0 to 100 scale, 0 no effect, 100 complete control, read-out: Plant response rating, Morningglory
[6] = post-emergence, Postemergence, 0 to 100 scale, 0 no effect, 100 complete control, read-out: Plant response rating, Crabgrass, Large

For `CCn1nc(C(C)(C)C)cc1C(=O)Nc1cc(C(=O)N(C)C)ccc1F` [Compound 6, N-[5-[(dimethylamino)carbonyl]-2-fluorophenyl]-3-(1,1-dimethylethyl)-1-ethyl-1H-pyrazole-5-carboxamide], the “Plant response rating (0 = no effect, 100 = complete control), Bermudagrass” value (bermudagrass; 62 g ai/ha, preemergence) was 80, the pest or weed control at 125 g/ha (bermudagrass; Cynodon dactylon, pre-emergence, 312 h, 125 g ai/ha, scale 0-100, read-out: Plant response rating, Bermudagrass) was 90% and the pest or weed control at 250 g/ha (bermudagrass; Cynodon dactylon, pre-emergence, 312 h, 250 g ai/ha, scale 0 to 100 (0 no effect, 100 complete control), visual, 12 to 14 days, read-out: Plant response rating, Bermudagrass) was 90%. For the same molecule, the pest or weed control at 500 g/ha (bermudagrass; Cynodon dactylon, pre-emergence, 312 h, Preemergence, 500 g ai/ha, scale 0 to 100, 0 no effect, 100 complete control, read-out: Bermudagrass plant response rating) was 90%, the “Plant response rating (0 = no effect, 100 = complete control), Goosegrass” value (goosegrass; 62 g ai/ha, preemergence) was 85 and the pest or weed control at 125 g/ha (goosegrass; Eleusine indica, pre-emergence, 312 h, 125 g ai/ha, scale 0-100, read-out: Plant response rating, Goosegrass) was 100%. For the same molecule, the pest or weed control at 250 g/ha (goosegrass; Eleusine indica, pre-emergence, 312 h, 250 g ai/ha, scale 0 to 100 (0 no effect, 100 complete control), visual, 12 to 14 days, read-out: Plant response rating, Goosegrass) was 100%, the “Goosegrass plant response rating” value (goosegrass; [3]) was 100 and the “Plant response rating (0 = no effect, 100 = complete control), Velvetleaf” value (velvetleaf; 62 g ai/ha, preemergence) was 40. The pest or weed control at 250 g/ha (velvetleaf; Abutilon theophrasti, pre-emergence, 250 g ai/ha, scale 0 to 100 (0 no effect, 100 complete control), visual, 12 to 14 days, read-out: Plant response rating, Velvetleaf) was 100%, the “Velvetleaf plant response rating” value (velvetleaf; [3]) was 100 and the pest or weed control at 62 g/ha (ducksalad; 62 g ai/ha, scale 0 to 100 (0 no effect, 100 complete control), read-out: Ducksalad plant response rating) was 80%. For the same molecule, the pest or weed control at 125 g/ha (ducksalad; 125 g ai/ha, scale of 0 to 100, 0 is no effect, 100 is complete control, read-out: Ducksalad plant response rating) was 90%, the pest or weed control at 250 g/ha (ducksalad; 250 g ai/ha, visual rating after 12 to 14 days, scale 0 to 100 (0 no effect, 100 complete control), read-out: Plant response rating, Ducksalad) was 90% and the pest or weed control at 500 g/ha (ducksalad; 500 g ai/ha, visual rating after 12 to 14 days, scale 0 to 100 (0 no effect, 100 complete control), read-out: Plant response rating, Ducksalad) was 100%. The pest or weed control at 62 g/ha (barnyardgrass; 62 g ai/ha, scale 0 to 100 (0 no effect, 100 complete control), read-out: Barnyardgrass plant response rating) was 60%, the pest or weed control at 125 g/ha (barnyardgrass; 125 g ai/ha, scale of 0 to 100, 0 is no effect, 100 is complete control, read-out: Barnyardgrass plant response rating) was 90% and the pest or weed control at 250 g/ha (barnyardgrass; 250 g ai/ha, visual rating after 12 to 14 days, scale 0 to 100 (0 no effect, 100 complete control), read-out: Plant response rating, Barnyardgrass) was 90%. The pest or weed control at 500 g/ha (barnyardgrass; 500 g ai/ha, visual rating after 12 to 14 days, scale 0 to 100 (0 no effect, 100 complete control), read-out: Plant response rating, Barnyardgrass) was 90%, the “Plant response rating (0 = no effect, 100 = complete control), Johnsongrass” value (johnsongrass; 62 g ai/ha, preemergence) was 70 and the “Johnsongrass plant response rating” value (johnsongrass; [3]) was 100. For the same molecule, the pest or weed control at 125 g/ha (johnsongrass; Sorghum halepense, pre-emergence, 125 g ai/ha, scale 0-100, read-out: Plant response rating, Johnsongrass) was 90%, the pest or weed control at 250 g/ha (johnsongrass; Sorghum halepense, pre-emergence, 250 g ai/ha, scale 0 to 100 (0 no effect, 100 complete control), visual, 12 to 14 days, read-out: Plant response rating, Johnsongrass) was 90% and the “Plant response rating (0 = no effect, 100 = complete control), Surinam Grass” value (Surinam grass; 62 g ai/ha, preemergence) was 85. For the same molecule, the “Surinam Grass plant response rating” value (Surinam grass; [3]) was 100, the pest or weed control at 250 g/ha (Surinam grass; Urochloa decumbens, pre-emergence, 312 h, 250 g ai/ha, scale 0 to 100 (0 no effect, 100 complete control), visual, 12 to 14 days, read-out: Plant response rating, Surinam Grass) was 100% and the “Plant response rating (0 = no effect, 100 = complete control), Morningglory” value (morningglory [1]; 62 g ai/ha, preemergence) was 0. The pest or weed control at 250 g/ha (morningglory [1]; Ipomoea, pre-emergence, 250 g ai/ha, scale 0 to 100 (0 no effect, 100 complete control), visual, 12 to 14 days, read-out: Plant response rating, Morningglory) was 30%, the “Morningglory plant response rating” value (morningglory [1]; [3]) was 70 and the pest or weed control at 500 g/ha (giant foxtail; [4]) was 70%. The pest or weed control at 2000 g/ha (giant foxtail; [4]) was 70%, the pest or weed control at 500 g/ha (giant foxtail; pre-emergence, Preemergence, visual rating, 0 to 100 scale (0 no effect, 100 complete control), read-out: Foxtail, Giant plant response rating) was 100% and the pest or weed control at 2000 g/ha (giant foxtail; pre-emergence, Preemergence, 0 to 100 scale, 0 no effect, 100 complete control, read-out: Foxtail, Giant plant response rating) was 100%. For the same molecule, the “Plant response rating (0 = no effect, 100 = complete control), Corn” value (corn; 62 g ai/ha, preemergence) was 60, the “Corn plant response rating” value (corn; [3]) was 80 and the Corn plant response rating (crop injury, 0 = no effect, 100 = complete kill) at 125 g/ha (corn; Zea mays, pre-emergence, 312 h, 125 g ai/ha, scale 0-100) was 60%. It also gave a Corn plant response rating (crop injury, 0 = no effect, 100 = complete kill) at 250 g/ha (corn; Zea mays, pre-emergence, 312 h, 250 g ai/ha, scale 0 to 100 (0 no effect, 100 complete control), visual, 12 to 14 days) of 80%, a pest or weed control at 500 g/ha (morningglory [2]; [5]) of 10% and a pest or weed control at 2000 g/ha (morningglory [2]; [5]) of 30%. For the same molecule, the pest or weed control at 500 g/ha (morningglory [2]; pre-emergence, Preemergence, visual rating, 0 to 100 scale (0 no effect, 100 complete control), read-out: Morningglory plant response rating) was 45%, the pest or weed control at 2000 g/ha (morningglory [2]; pre-emergence, Preemergence, 0 to 100 scale, 0 no effect, 100 complete control, read-out: Morningglory plant response rating) was 80% and the pest or weed control at 500 g/ha (large crabgrass; [6]) was 80%. For the same molecule, the pest or weed control at 2000 g/ha (large crabgrass; [6]) was 90%, the pest or weed control at 500 g/ha (large crabgrass; pre-emergence, Preemergence, visual rating, 0 to 100 scale (0 no effect, 100 complete control), read-out: Crabgrass, Large plant response rating) was 100% and the pest or weed control at 2000 g/ha (large crabgrass; pre-emergence, Preemergence, 0 to 100 scale, 0 no effect, 100 complete control, read-out: Crabgrass, Large plant response rating) was 100%. For the same molecule, the “Plant response rating (0 = no effect, 100 = complete control), Ragweed” value (common ragweed; 62 g ai/ha, preemergence) was 100, the pest or weed control at 250 g/ha (common ragweed; Ambrosia artemisiifolia, pre-emergence, 250 g ai/ha, scale 0 to 100 (0 no effect, 100 complete control), visual, 12 to 14 days, read-out: Plant response rating, Ragweed) was 100% and the “Ragweed plant response rating” value (common ragweed; [3]) was 100.
